Assay results taken from patent US8143282B2, “Heterocyclic compounds” (S*BIO Pte Ltd., priority 2005, dated 2012).

Tests used:
[1] = tested on: HCT116; test: Cell-based proliferation assay for GI50 (CyQUANT), HCT116; settings: Homo sapiens, HCT-116; HCT116, 96 h treatment; read-out: Cellular or Growth Inhibition Activity, GI50, HCT116
Experimental: (§1) Human colon cancer cell lines (Colo205, HCT116), Ovarian cancer cell line (A2780), Hepatoma cell line (HEP3B), Prostate cancer cell line (PC3) were obtained from ATCC or ECACC. Colo205 cells were cultivated in RPMI 1640 containing 2 mM L-Glutamine, 5% FBS, 1.0 mM Na Pyruvate, 1 U/ml of penicillin and 1 μg of streptomycin. HCT116 cells were cultivated in McCoy's containing RPMI 1640 containing 2 mM L-Glutamine, 5% FBS, 1 U/ml of penicillin and 1 μg of streptomycin. A2780 cells were cultivated in RPMI 1640 containing 2 mM L-Glutamine, 5% FBS, 1 U/ml of penicillin and 1 μg of streptomycin. HEP3B cells were cultivated in EMEM containing 2 mM L-glutamine, 5% FBS, 1% non essential amino acid, 1 mM Na Pyruvate, 1 U/ml of penicillin and 1 μg of streptomycin. PC3 cells were cultivated in F12K, 2 mM L-glutamine, 5% FBS, 1 U/ml of penicillin and 1 μg of streptomycin. PC3, Colo205, and HCT116 cells were seeded in 96-wells plate at 1000, 5000 and 6000 cells per well respectively. A2780 and HEP3B cells were seeded in 96-wells plate at 4000 cells per well respectively. The plates were incubated at 37° C., 5% CO2, for 24 h. Cells were treated with compounds at various concentrations for 96 h. Cell growth was then monitored using CyQUANT® cell proliferation assay (Invitrogen Pte Ltd). Dose response curves were plotted to determine GI50 values for the compounds using XL-fit (ID Business Solution, Emeryville, Calif.). GI50 is defined as the concentration of compound required for 50% inhibition of cell growth.

[2] = tested on: PC3; test: Cell-based proliferation assay for GI50 (CyQUANT), PC3; settings: Homo sapiens, PC-3; PC3, 96 h treatment; read-out: Cellular or Growth Inhibition Activity, GI50, PC3
Experimental: as §1

[3] = tested on: A2780; test: Cell-based proliferation assay for GI50 (CyQUANT), A2780; settings: Homo sapiens; A2780, 96 h treatment; read-out: Cellular or Growth Inhibition Activity, GI50, A2780
Experimental: as §1

[4] = Measurement of microsomal stability; type: in vitro ADME; settings: pooled human liver microsomes, pH 7.4; human liver microsome, 5 μM test compound, 1.0 mg/ml microsomal protein
Experimental: Metabolic stability measurements in the in vitro using liver microsomes aids in the prediction of the in vivo hepatic clearance and the compound stability towards phase I biotransformation reactions mediated by P450 isozymes.
Pooled human liver microsome (HLM was purchased from BD Gentest (BD BioSciences). The incubations consisted of test compound (5 μM) or control compound (Verapamil), NADPH-generating system solution A (25 mM NADP^+, 66 mM glucose-6-phosphate, 66 mM MgCl2 in H2O), NADPH-generating system solution B (40 U/ml glucose-6-phosphate dehydrogenase in 5 mM sodium citrate) and 1.0 mg/ml microsomal protein, respectively, in 100 mM potassium phosphate buffer (pH 7.4). Samples were incubated for 0, 5, 15, 30, 45, 60 min. Reaction was terminated with ice-cold 80% acetonitrile and 20% DMSO. Samples were subsequently centrifuged at 4° C. for 15 min at 2,000 rpm. 100 μL of the supernatant was transferred to the LC-MS Plate for analysis. Before quantitative analysis, the compound was tuned in LC/MS machine to get the optimized MS condition. Liquid chromatography was performed on a Luna C18 column (Phenomenex U.S.A, Torrance, Calif.) (2×50 mm, 5 μM). % of the compound remaining (by area) at each time point is calculated with respect to time 0 min. Plot % remaining against time (min) to obtain the curve and use the Prism software to obtain the t1/2.

[5] = biological target: T1, HDAC1 enzyme (Homo sapiens, UniProt Q13547); test: In vitro HDAC assay for determination of IC50 values (BIOMOL fluorescent-based HDAC activity assay); type: biochemical
T1 construct: Amplification of human HDAC1 coding region from this cDNA library was cloned separately into the baculovirus expression pDEST20 vector; made in house; host or cells: SF9 insect cells, pDEST20-HDAC1 baculovirus
Method in brief: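 Recombinant GST-HDAC1, cloned from SW620 cDNA and expressed in Sf9 cells, tested in a fluorogenic Fluor de Lys deacetylase assay. Developer was added for 10 min and fluorescence read at 360/460 nm. IC50 came from concentration series.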

[6] = tested on: HEP3B; test: Cell-based proliferation assay for GI50 (CyQUANT), HEP3B; settings: Homo sapiens, 96 h treatment, read-out: Cellular or Growth Inhibition Activity, GI50, HEP3B
Experimental: as §1

[7] = tested on: Colo205 cells; test: Cell-based proliferation assay for GI50 (CyQUANT), Colo205; settings: Homo sapiens, COLO 205, 96 h treatment, read-out: Cellular or Growth Inhibition Activity in Colo205 cells, GI50
Method in brief: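 Cells were seeded at 1000 (PC3), 5000 (Colo205), 6000 (HCT116) or 4000 (HEP3B) per well and left 24 h at 37° C. Compound treatment lasted 96 h. Growth was read by CyQUANT, and GI50 (50% growth inhibition) came from dose-response curves.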

[8] = tested on: acetylated histone H3; test: Histone H3 acetylation assay (immuno-blotting) in Colo205 cells; type: cell-based, Human; settings: 10 μM, 24 h, western-blot
Experimental: A hallmark of histone deacetylase (HDAC) inhibition is the increase in the acetylation level of histones. Histone acetylation, including H3, H4 and H2A can be detected by immuno-blotting (western-blot). Colo205 cells, approximately 5×10^5 cells, were seeded in the previously described medium, cultivated for 24 h and subsequently treated with HDAC inhibitory agents and a positive control at a final concentration of 10 μM. After 24 h, cells were harvested and lysed according to the instruction from Sigma Mammalian Cell Lysis Kit. The protein concentration was quantified using BCA method (Sigma Pte Ltd). The protein lysate was separated using 4-12% bis-tris SDS-PAGE gel (Invitrogen Pte Ltd) and was transferred onto PVDF membrane (BioRad Pte Ltd). The membrane was probed using primary antibody specific for acetylated histone H3 (Upstate Pte Ltd). The detection antibody, goat anti rabbit antibody conjugated with HRP was used according to the manufacturing instruction (Pierce Pte Ltd). After removing the detection antibody from the membrane, an enhanced chemiluminescent substrate for detection of HRP (Pierce Pte Ltd) was added onto the membrane. After removing the substrate, the membrane was exposed to an X-ray film (Kodak) for 1 sec-20 mins. The X-ray film was developed using the X-ray film processor. The density of each band observed on the developed film could be qualitatively analyzed using UVP Bioimaging software (UVP, Inc, Upland, Calif.). The values were then normalized against the density of actin in the corresponding samples to obtain the expression of the protein.

T1 sequence (Q13547 whole entry): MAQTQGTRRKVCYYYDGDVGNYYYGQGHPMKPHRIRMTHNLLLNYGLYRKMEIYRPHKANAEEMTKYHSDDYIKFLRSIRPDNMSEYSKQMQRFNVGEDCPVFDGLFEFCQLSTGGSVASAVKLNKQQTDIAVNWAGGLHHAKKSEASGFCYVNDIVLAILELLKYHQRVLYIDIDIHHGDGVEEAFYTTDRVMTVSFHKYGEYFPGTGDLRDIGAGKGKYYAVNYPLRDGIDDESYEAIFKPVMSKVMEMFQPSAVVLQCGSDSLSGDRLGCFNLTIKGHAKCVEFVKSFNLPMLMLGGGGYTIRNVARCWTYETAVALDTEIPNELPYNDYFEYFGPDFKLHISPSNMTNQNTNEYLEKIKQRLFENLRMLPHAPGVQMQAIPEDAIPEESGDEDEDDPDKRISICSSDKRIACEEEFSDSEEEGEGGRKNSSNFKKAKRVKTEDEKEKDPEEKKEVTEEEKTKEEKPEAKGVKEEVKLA

| SMILES | GI50 [1] [nM] | GI50 [2] [nM] | GI50 [3] [nM] | half-life at 5 μM [4] [min] | IC50 [5] [nM] | GI50 [6] [nM] | GI50 [7] [nM] | Histone Acetylation activities (Histone-3) [8] |
| --- | --- | --- | --- | --- | --- | --- | --- | --- |
| CCCCc1nc2cc(/C=C/C(=O)NO)ccc2n1CCNC(C)C [Compound 46, 3-[2-Butyl-1-(2-isopropylamino-ethyl)-1H-benzoimidazol-5-yl]-N-hydroxy-acrylamide] | < 500 | < 500 | < 500 | > 30 | 49 | 500 to 1000 | 480 |  |
| CC/C=C\CCc1nc2cc(/C=C/C(=O)NO)ccc2n1CCNCC [Compound 30, 3-[1-(2-Ethylamino-ethyl)-2-hex-3-enyl-1H-benzoimidazol-5-yl]-N-hydroxy-acrylamide] | 500 to 1000 | < 500 | < 500 |  |  |  | 310 |  |
| CCCCCCc1nc2cc(/C=C/C(=O)NO)ccc2n1CCNC [Compound 74, 3-[2-Hexyl-1-(2-methylamino-ethyl)-1H-benzoimidazol-5-yl]-N-hydroxy-acrylamide] |  |  |  | > 30 | 28 |  | 550 | Active |
| CCNCCn1c(CC(C)CC(C)(C)C)nc2cc(/C=C/C(=O)NO)ccc21 (stereo not shown) [Compound 40, 3-[1-(2-Ethylamino-ethyl)-2-(2,4,4-trimethyl-pentyl)-1H-benzoimidazol-5-yl]-N-hydroxy-acrylamide] | < 500 | < 500 | < 500 | > 30 | 27 |  | 160 |  |
| CCCCCc1nc2cc(/C=C/C(=O)NO)ccc2n1CCN(C)C [Compound 65, 3-[1-(2-Dimethylamino-ethyl)-2-pentyl-1H-benzoimidazol-5-yl]-N-hydroxy-acrylamide] |  |  |  |  | 78 |  | 560 | Active |
| CC(Cc1nc2cc(/C=C/C(=O)NO)ccc2n1CC(C)(C)CN(C)C)CC(C)(C)C (stereo not shown) [Compound 23, 3-[1-(3-Dimethylamino-2,2-dimethyl-propyl)-2-(2,4,4-trimethyl-pentyl)-1H-benzoimidazol-5-yl]-N-hydroxy-acrylamide] | 500 to 1000 | < 500 | < 500 |  | 45 |  | 190 |  |
| CCCCCc1nc2cc(/C=C/C(=O)NO)ccc2n1CCNCC [Compound 68, 3-[1-(2-Ethylamino-ethyl)-2-pentyl-1H-benzoimidazol-5-yl]-N-hydroxy-acrylamide] |  |  |  | > 30 | 34 |  | 520 | Active |

More lines, main results first:

| GI50 [1] [nM] | GI50 [2] [nM] | GI50 [3] [nM] | half-life at 5 μM [4] [min] | IC50 [5] [nM] | GI50 [6] [nM] | GI50 [7] [nM] | SMILES | Histone Acetylation activities (Histone-3) [8] |
| --- | --- | --- | --- | --- | --- | --- | --- | --- |
| < 500 | < 500 | < 500 | > 30 | 30 | < 500 | 380 | CCCCCCc1nc2cc(/C=C/C(=O)NO)ccc2n1CCN(C)C [Compound 58, 3-[1-(2-Dimethylamino-ethyl)-2-hexyl-1H-benzoimidazol-5-yl]-N-hydroxy-acrylamide] |  |
| < 500 | < 500 | < 500 | > 30 | 25 |  | 210 | CCCCCCc1nc2cc(/C=C/C(=O)NO)ccc2n1CCNCC [Compound 52, 3-[1-(2-Ethylamino-ethyl)-2-hexyl-1H-benzoimidazol-5-yl]-N-hydroxy-acrylamide] |  |
|  |  |  |  | 29 | < 500 | 210 | CCN(CCn1cnc2cc(/C=C/C(=O)NO)ccc21)CCC(C)(C)C [Compound 111, 3-(1-{2-[(3,3-Dimethyl-butyl)-ethyl-amino]-ethyl}-1H-benzoimidazol-5-yl)-N-hydroxy-acrylamide] |  |
| < 500 | < 500 | < 500 | > 30 | 40 |  | 240 | CCCCCc1nc2cc(/C=C/C(=O)NO)ccc2n1CCNC(C)C [Compound 71, N-Hydroxy-3-[1-(2-isopropylamino-ethyl)-2-pentyl-1H-benzoimidazol-5-yl]-acrylamide] | Active |
| < 500 | < 500 | < 500 |  |  |  | 170 | CCCCCCc1nc2cc(/C=C/C(=O)NO)ccc2n1CCNC(C)C [Compound 50, 3-[2-Hexyl-1-(2-isopropylamino-ethyl)-1H-benzoimidazol-5-yl]-N-hydroxy-acrylamide] |  |
| 1000 to 5000 | < 500 | < 500 |  | 64 |  | 750 | CC/C=C\CCc1nc2cc(/C=C/C(=O)NO)ccc2n1CC(C)(C)CN(C)C [Compound 22, 3-[1-(3-Dimethylamino-2,2-dimethyl-propyl)-2-hex-3-enyl-1H-benzoimidazol-5-yl]-N-hydroxy-acrylamide] |  |
| 1000 to 5000 | < 500 | 500 to 1000 | > 30 | 54 |  | 870 | CCCCc1nc2cc(/C=C/C(=O)NO)ccc2n1CCNCC [Compound 44, 3-[2-Butyl-1-(2-ethylamino-ethyl)-1H-benzoimidazol-5-yl]-N-hydroxy-acrylamide] |  |
|  |  |  | > 30 | 51 |  | 540 | CCNCCn1c(CCC(C)(C)C)nc2cc(/C=C/C(=O)NO)ccc21 [Compound 63, 3-[1-(2-ethylamino-ethyl)-2-(3,3-dimethyl-butyl)-1H-benzoimidazol-5-yl]-N-hydroxy-acrylamide] | Active |
| 1000 to 5000 | 500 to 1000 | 1000 to 5000 |  |  |  | 810 | CCN(CC)CCn1c(CC(C)C)nc2cc(/C=C/C(=O)NO)ccc21 [Compound 7, 3-[1-(2-Diethylamino-ethyl)-2-isobutyl-1H-benzoimidazol-5-yl]-N-hydroxy-acrylamide] |  |
